Experiment [1] deals with T1, human mu opioid receptor (Homo sapiens, UniProt P35372). As to the kind of experiment: Radioligand binding assay, human mu opioid receptor. As to conditions: for Ki: displacement of [3H]-Diprenorphine 0.5 nM, CHO-K1 cell membranes, read-out: pKi at the human mu opioid receptor (converted).
The target in experiment [2] is T1, human mu opioid receptor. Briefly: Human mu [35S]GTPγS nucleotide exchange assay (agonist mediated activation). The experiment is classed as biochemical. As to conditions: read-out: intrinsic activity (IA). (In general: GTPγS is a poorly hydrolysed GTP analogue; its binding reports G protein activation.)
For experiment [3], the system named is loperamide-induced delayed gastric emptying. Briefly: Rat gastric emptying assay (reversal of loperamide-induced delayed gastric emptying). Type of experiment: in vivo. As to conditions: administered orally, loperamide 1 mg/kg s.c., gastric emptying model. The protocol: Assay 3: Rat Model of In Vivo Efficacy In this assay the efficacy of test compounds was evaluated in a model of gastrointestinal transit, which evaluates peripheral activity. This study was approved by the Institutional Animal Care and Use Committee at […]. and conformed to the Guide for the Care and Use of Laboratory Animals published by the National Academy of Sciences (©1996). a. Rat Gastric Emptying Assay Test compounds were evaluated in the rat gastric emptying assay to determine their ability to reverse loperamide-induced delayed gastric emptying. Rats were fasted up overnight prior to administration of test compounds or vehicle by intravenous, subcutaneous, intramuscular or oral routes of administration at doses ranging from 0.001 to about 30 milligrams/kilogram (mg/kg). The administration of test compound was followed by subcutaneous administration of loperamide at a dose of 1 mg/kg or vehicle. Five minutes post loperamide or vehicle administration, a non-nutritive, non-absorbable charcoal meal was administered via oral gavage and animals were allowed free access to water for the sixty minute duration of the experiment. Animals were then euthanized via carbon dioxide asphyxiation followed by thoracotomy and the stomach was carefully excised. The stomach was ligated at the lower esophageal sphincter and the pyloric sphincter to prevent additional emptying during tissue removal. Gastric weight was then determined after removal of the ligatures. b. Data Analysis and Results Data was analyzed using the GraphPad Prism Software package (GraphPad Software, Inc., San Diego, Calif.). Percent reversal curves were constructed by non-linear regression analysis using the sigmoidal dose response (variable slope) model and best-fit ID50 values were calculated. Curve minima and maxima were fixed to loperamide control values (indicating 0% reversal) and vehicle controls (indicating 100% reversal), respectively. Results are expressed as ID50, the dose required for 50% reversal of the effects of loperamide, in milligrams per kilogram.

The mark [4] stands for this setting: bound [35S]GTPγS relative to DAMGO (IA=100), CHO-K1 membranes expressing human mu opioid receptor.

The pKi is −log10 of the Ki, conventionally taken in molar units.

pKi: −log10 of the molar value. Read-outs that look alike come from different tables or passages of the source.

T1 sequence (P35372 whole entry): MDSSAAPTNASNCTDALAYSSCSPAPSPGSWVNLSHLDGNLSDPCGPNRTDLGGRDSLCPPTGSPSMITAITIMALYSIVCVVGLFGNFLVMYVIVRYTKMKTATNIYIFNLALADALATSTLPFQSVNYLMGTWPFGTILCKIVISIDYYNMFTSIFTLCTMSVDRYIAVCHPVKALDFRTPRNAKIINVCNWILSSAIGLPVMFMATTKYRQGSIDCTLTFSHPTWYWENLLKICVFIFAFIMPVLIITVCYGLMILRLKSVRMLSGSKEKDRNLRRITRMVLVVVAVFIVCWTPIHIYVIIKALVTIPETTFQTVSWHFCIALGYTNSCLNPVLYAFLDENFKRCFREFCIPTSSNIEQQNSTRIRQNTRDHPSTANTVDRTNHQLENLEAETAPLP

With `COC1Cc2ccc(C(N)=O)cc2C(C)(C)C1NC[C@H](N)Cc1ccccc1` (single isomer, unassigned) [Example 8], the pKi in experiment [1] was 8.80. Further, in experiment [2], the Emax was -7%.
Take `CO[C@@H]1Cc2ccc(C(N)=O)cc2C(C)(C)[C@H]1NCCCNC(=O)C1CCCCC1` (relative stereo) [Example 1, trans-7-[3-(Cyclohexanecarbonyl-amino)-propylamino]-6-methoxy-8,8-dimethyl-5,6,7,8-tetrahydro-naphthalene-2-carboxylic acid amide]: the Ki in experiment [1] was 0.158 nM. In addition, the Emax in experiment [2] (setting [4]) was 10%. Further, the “ID50, dose required for 50% reversal of the effects of loperamide” value (“ID50, dose required for 50% reversal” below) in experiment [3] turned out to be 0.5 mg/kg.
In the same order, the values of `CO[C@@H]1Cc2ccc(C(N)=O)cc2C(C)(C)[C@H]1NCCCNC(=O)CC(C)(C)C` (relative stereo) [Example 11, trans-7-[3-(3,3-Dimethyl-butyrylamino)-propylamino]-6-methoxy-8,8-dimethyl-5,6,7,8-tetrahydro-naphthalene-2-carboxylic acid amide] are 0.2 nM, 1% and 0.4 mg/kg.
For the molecule `CO[C@H]1Cc2ccc(C(N)=O)cc2C(C)(C)[C@@H]1NCCCNC(=O)CC(C)(C)C` [Example 12, (6S,7S)-7-[3-(3,3-Dimethyl-butyrylamino)-propylamino]-6-methoxy-8,8-dimethyl-5,6,7,8-tetrahydro-naphthalene-2-carboxylic acid amide], the Ki in experiment [1] was 0.0631 nM. The “ID50, dose required for 50% reversal” value in experiment [3] is given as 0.11 mg/kg.
As for `CO[C@@H]1Cc2ccc(C(N)=O)cc2C(C)(C)[C@H]1NCCCNC(=O)c1ccccc1` (relative stereo) [Example 16, trans-7-(3-Benzoylamino-propylamino)-6-methoxy-8,8-dimethyl-5,6,7,8-tetrahydro-naphthalene-2-carboxylic acid amide], the Ki in experiment [1] is 0.126 nM. Also, the Emax in experiment [2] (setting [4]) was -2%. Further, the “ID50, dose required for 50% reversal” value in experiment [3] was determined as 0.63 mg/kg.
